# Test results reported in ChEMBL document CHEMBL3797123, “Amino(oxo)acetate moiety: A new functional group to improve the cytotoxicity of betulin derived carbamates” (Bioorg Med Chem Lett, 2016).
# What was measured:
# Format in all cases: functional, cell-based
# [1] = Cytotoxicity against human 518A2 cells after 96 hrs by SRB assay; settings: 518A2, 96 h
# [2] = test system: A2780; assay: Cytotoxicity against human A2780 cells after 96 hrs by SRB assay; settings: A2780, 96 h
# [3] = test system: HT-29; assay: Cytotoxicity against human HT-29 cells after 96 hrs by SRB assay; settings: HT-29, 96 h
# [4] = test system: MCF7; assay: Cytotoxicity against human MCF7 cells after 96 hrs by SRB assay; settings: MCF7, 96 h
# [5] = test system: A549; assay: Cytotoxicity against human A549 cells after 96 hrs by SRB assay; settings: A549, 96 h
# [6] = test system: HeLa; assay: Cytotoxicity against human HeLa cells after 96 hrs by SRB assay
SMILES,EC50 [1] [µM],EC50 [2] [µM],EC50 [3] [µM],EC50 [4] [µM],EC50 [5] [µM],EC50 [6] [µM]
C=C(C)[C@@H]1CC[C@]2(CO)CC[C@]3(C)[C@H](CC[C@@H]4[C@@]5(C)CC[C@H](OC(C)=O)C(C)(C)[C@@H]5CC[C@]43C)[C@@H]12,> 30,28.5,> 30,20.2,> 30,> 30
C=C(C)[C@@H]1CC[C@]2(COC(=O)NCCCCCC)CC[C@]3(C)[C@H](CC[C@@H]4[C@@]5(C)CC[C@H](O)C(C)(C)[C@@H]5CC[C@]43C)[C@@H]12,5.6,7.6,–,–,–,–
C=C(C)[C@@H]1CC[C@]2(COC(=O)NCC)CC[C@]3(C)[C@H](CC[C@@H]4[C@@]5(C)CC[C@H](OC(=O)C(N)=O)C(C)(C)[C@@H]5CC[C@]43C)[C@@H]12,11.4,10,15.3,11.2,13.7,14.1
C=C(C)[C@@H]1CC[C@]2(COC(=O)NCCCC)CC[C@]3(C)[C@H](CC[C@@H]4[C@@]5(C)CC[C@H](OC(=O)C(N)=O)C(C)(C)[C@@H]5CC[C@]43C)[C@@H]12,7.9,6.4,10.1,10,9.1,11.2
C=C(C)[C@@H]1CC[C@]2(COC(=O)NCCCCCC)CC[C@]3(C)[C@H](CC[C@@H]4[C@@]5(C)CC[C@H](OC(=O)C(N)=O)C(C)(C)[C@@H]5CC[C@]43C)[C@@H]12,6.5,2,7.3,5.6,7.4,10.1
C=C(C)[C@@H]1CC[C@]2(COC(=O)NCCC)CC[C@]3(C)[C@H](CC[C@@H]4[C@@]5(C)CC[C@H](OC(=O)C(N)=O)C(C)(C)[C@@H]5CC[C@]43C)[C@@H]12,9.9,7,12.8,12.5,10.5,12.8
C=C(C)[C@@H]1CC[C@]2(COC(=O)Nc3ccccc3)CC[C@]3(C)[C@H](CC[C@@H]4[C@@]5(C)CC[C@H](OC(=O)C(N)=O)C(C)(C)[C@@H]5CC[C@]43C)[C@@H]12,15.3,17.3,21.4,17.6,20.4,10.5
C=C(C)[C@@H]1CC[C@]2(COC(C)=O)CC[C@]3(C)[C@H](CC[C@@H]4[C@@]5(C)CC[C@H](OC(C)=O)C(C)(C)[C@@H]5CC[C@]43C)[C@@H]12 [BETULIN DIACETATE],–,20.3,25.7,–,21.5,> 30
C=C(C)[C@@H]1CC[C@]2(C(=O)O)CC[C@]3(C)[C@H](CC[C@@H]4[C@@]5(C)CC[C@H](O)C(C)(C)[C@@H]5CC[C@]43C)[C@@H]12 [BETULINIC ACID],–,–,–,–,–,8.8
C=C(C)[C@@H]1CC[C@]2(CO)CC[C@]3(C)[C@H](CC[C@@H]4[C@@]5(C)CC[C@H](O)C(C)(C)[C@@H]5CC[C@]43C)[C@@H]12 [BETULIN],–,–,> 30,–,–,> 30
